One data set can be described thus: Chrom Log D pH7.4. The data set is classed as physicochemical. On the procedure: This assay was conducted as previously described.[11]
The test system of another data set is L. donovani amastigotes. The data set can be described thus: Intramacrophage L. donovani assay (Ld InMac). Particulars: for IC50: read-out: LdInMac pIC50 (converted). The class given is cell-based, Leishmania donovani. As for the experimental part: (§1) This assay was conducted as previously described,[8] except for compound exposure time, which was 96 h instead of 72 h.

In a further data set the test system is Leishmania donovani. The data set can be described thus: VL mouse in vivo efficacy model (liver parasite burden, LDU). As for the experimental part: (§2) Because of having higher metabolic stability (in mouse liver microsomes) and lower Chrom Log D, compound 16 was progressed into a VL in vivo efficacy study, carried out in our previously described VL mouse model.[7] […] Parasite load was determined in the livers of animals 3 days after cessation of treatment, and parasite burden was expressed in Leishman Donovan units (LDUs, the mean number of amastigotes per liver cell × mg weight of liver). The blood exposure of compound 16 was also determined in dosed animals on days 1 and 5 to better understand the PK/pharmacodynamics (PD) relationship of the series. According to our project criteria, a compound needs to reduce parasite burden by >70% before being considered suitable for progression to lead-optimization, while a reduction of >95% would be considered suitable for a preclinical development candidate.[12]
In vivo studies were carried out as previously described.[12]

For data set [1] the following is noted: mouse, in vivo. As for the experimental part:
as §2, with “candidate.[12] In the study, miltefosine behaved as expected, reducing parasite levels by >99% at 30 mg/kg qd. After twice daily ip dosing at 50 mg/kg, compound 16 reduced parasite burden in mouse liver by 46%. This provided an early proof of concept for this series but fell short of our target of >70% parasite reduction.” for “candidate.[12]”

Data set [2] in a line: Kinetic aqueous solubility. The class given is physicochemical. Particulars: for solubility kinetic: read-out: Aq Solubility (kinetic aqueous solubility); for solubility: aqueous medium (not further specified), supplement sheet. As for the experimental part:
(§3) These assays were conducted as previously described.[23]

Data set [3] is classed as in vitro ADME, mouse. As for the experimental part:
As a means of measuring glucuronidation in vitro, 16 was assessed in a mouse liver hepatocyte assay.

The nature of data set [4]: Mouse liver microsomal intrinsic clearance. Conditions: for Cli (mouse liver microsomal intrinsic clearance): mouse liver microsomes; for Cli (mouse, ml/min/g): supplement sheet. The class given is in vitro ADME. On the procedure:
as §3
Background: Liver microsomes are vesicles of endoplasmic reticulum, rich in cytochrome P450 enzymes.

In another data set the test system is THP-1 cells. The data set can be described thus: THP-1 host cell toxicity readout of the intramacrophage assay. The class given is cell-based, human. Conditions: for IC50: Homo sapiens, THP-1, read-out: THP1 pIC50 (converted); for EC50: read-out: THP-1 (pEC50) (converted). On the procedure:
as §1

A further data set concerns the target T1, monoamine oxidase A (Homo sapiens, UniProt P21397).
T1 sequence (P21397 1-527): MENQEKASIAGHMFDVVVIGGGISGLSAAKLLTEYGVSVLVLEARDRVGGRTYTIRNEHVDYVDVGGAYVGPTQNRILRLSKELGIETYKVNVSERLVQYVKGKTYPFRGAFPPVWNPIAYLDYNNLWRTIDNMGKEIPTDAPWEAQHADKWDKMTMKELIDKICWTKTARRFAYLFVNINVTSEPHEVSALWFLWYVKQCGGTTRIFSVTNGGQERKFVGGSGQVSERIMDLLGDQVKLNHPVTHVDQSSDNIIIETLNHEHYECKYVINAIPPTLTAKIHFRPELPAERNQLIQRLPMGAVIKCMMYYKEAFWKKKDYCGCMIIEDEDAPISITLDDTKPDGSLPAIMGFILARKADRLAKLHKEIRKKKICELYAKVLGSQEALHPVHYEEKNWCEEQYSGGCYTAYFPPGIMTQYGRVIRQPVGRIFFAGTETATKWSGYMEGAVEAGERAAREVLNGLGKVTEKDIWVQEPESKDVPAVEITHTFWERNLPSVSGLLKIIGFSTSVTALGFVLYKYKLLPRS
The data set is described as follows: GSK enhanced cross-screen panel (eXP): monoamine oxidase A. The class given is biochemical. Particulars: read-out: pIC50 against monoamine oxidase A (converted). An excerpt: (§4) First, the compounds which were poorly tolerated in mice, 28 and 34, were screened against a panel of >30 receptors with known links to in vivo toxicity (GSK-enhanced cross-screen panel (eXP)).[18] […] From this, it was not clear whether the effects seen in the receptor screen were related to the observed in vivo toxicity.

Data set [5] has as its system cell health (mitochondrial integrity). The data set is described as follows: GSK eXP: phenotypic cell health assay. The data set is classed as cell-based. Particulars: GSK eXP panel.
Excerpt: as §4

The nature of data set [6]: Mouse PK study 50 mg/kg ip (metabolites, tolerability). The class given is in vivo. On the procedure: Since 7 itself was metabolically unstable (Cli = 10 mg/mL/g), we became interested in transferring the SAR from the triazole subseries (e.g., 16) to investigate its impact on metabolic stability, with a particular focus on glucuronidation. To this end, we synthesized 26 (Table 5) as a direct analogue of triazole 16.
Figure 3 PK profile of 26, showing levels of parent, glucuronide adduct, major hydroxylated metabolite, and other minor metabolites. Data are based on two replicates, with error bars representing the range of the data from the two runs. Blood/water (30 μL, 1:2) were collected following 50 mg/kg ip administration to Balb C mice at prescribed time points; 90 μL of acetonitrile (ACN) was then added to each sample and the samples were centrifuged for 5 min at 7000 rpm; 90 μL of supernatant was removed and added to 50 μL of Milli-Q water before ultrahigh-performance liquid chromatography–quadrupole time-of-flight (UPLC Q-TOF) analysis.
We synthesized a set of benzyl amides, where 4-methoxy analogue 27 and α-methyl-4-fluoro analogue 28 both gave very encouraging profiles, meeting progression criteria in terms of potency, metabolic stability, and clearance. […] Due to its impressive in vitro potency, we selected 28 for progression into an in vivo PK study.
We noted that a related compound from Merck, L-870,810 (30),[17] was reported as a clinical candidate targeting HIV integrase, which progressed as far as phase II clinical trials. […] Also, introducing substituents into the 5-naphthyridyl position had been a successful strategy for improving metabolic stability and potency in the triazole subseries. We therefore investigated a range of 5-substituted naphthyridyl analogues (Table 5). THP-amine 31 and morpholine 32 lost potency compared to parent compound 7, so we switched attention back to 5-phenylnaphthyridines. […] Further combinations of nonaromatic amides with differently substituted 5-phenylnaphthyridines were synthesized, and while changing the phenyl substituent gave flat SAR and no advantage over previous compounds, exploration of the amide led to 34 with a trans-4-methoxycyclopropylamide. Compound 34 gave a good balance of potency, solubility, and microsomal stability and was therefore selected for a mouse PK study.

Data set [7] has as its target bile salt export pump (BSEP) (Homo sapiens, UniProt O95342). The data set is described as follows: GSK eXP: bile salt export pump (BSEP) assay. The class given is biochemical. Particulars: GSK eXP panel; read-out: pIC50 in BSEP assay (converted).
Excerpt: as §4

The subject of the next data set is phospholipidosis. The data set is described as follows: GSK eXP: phospholipidosis assay. The data set is classed as cell-based. Conditions: GSK eXP panel.
Excerpt: as §4

Setting [8] is: chromatographic (HPLC retention) system, pH 7.4, supplement sheet, read-out: ChromLogD.
Setting [9] is: chromatographic system (Chrom Log D), pH 7.4, read-out: ChromLogDpH7.4.
Setting [10] is: Leishmania donovani, supplement sheet.

Read-outs that look alike come from different tables or passages of the source. A value given as a limit tells only on which side of the number the result lay.

bile salt export pump (BSEP), sequence (O95342 whole entry, species assumed): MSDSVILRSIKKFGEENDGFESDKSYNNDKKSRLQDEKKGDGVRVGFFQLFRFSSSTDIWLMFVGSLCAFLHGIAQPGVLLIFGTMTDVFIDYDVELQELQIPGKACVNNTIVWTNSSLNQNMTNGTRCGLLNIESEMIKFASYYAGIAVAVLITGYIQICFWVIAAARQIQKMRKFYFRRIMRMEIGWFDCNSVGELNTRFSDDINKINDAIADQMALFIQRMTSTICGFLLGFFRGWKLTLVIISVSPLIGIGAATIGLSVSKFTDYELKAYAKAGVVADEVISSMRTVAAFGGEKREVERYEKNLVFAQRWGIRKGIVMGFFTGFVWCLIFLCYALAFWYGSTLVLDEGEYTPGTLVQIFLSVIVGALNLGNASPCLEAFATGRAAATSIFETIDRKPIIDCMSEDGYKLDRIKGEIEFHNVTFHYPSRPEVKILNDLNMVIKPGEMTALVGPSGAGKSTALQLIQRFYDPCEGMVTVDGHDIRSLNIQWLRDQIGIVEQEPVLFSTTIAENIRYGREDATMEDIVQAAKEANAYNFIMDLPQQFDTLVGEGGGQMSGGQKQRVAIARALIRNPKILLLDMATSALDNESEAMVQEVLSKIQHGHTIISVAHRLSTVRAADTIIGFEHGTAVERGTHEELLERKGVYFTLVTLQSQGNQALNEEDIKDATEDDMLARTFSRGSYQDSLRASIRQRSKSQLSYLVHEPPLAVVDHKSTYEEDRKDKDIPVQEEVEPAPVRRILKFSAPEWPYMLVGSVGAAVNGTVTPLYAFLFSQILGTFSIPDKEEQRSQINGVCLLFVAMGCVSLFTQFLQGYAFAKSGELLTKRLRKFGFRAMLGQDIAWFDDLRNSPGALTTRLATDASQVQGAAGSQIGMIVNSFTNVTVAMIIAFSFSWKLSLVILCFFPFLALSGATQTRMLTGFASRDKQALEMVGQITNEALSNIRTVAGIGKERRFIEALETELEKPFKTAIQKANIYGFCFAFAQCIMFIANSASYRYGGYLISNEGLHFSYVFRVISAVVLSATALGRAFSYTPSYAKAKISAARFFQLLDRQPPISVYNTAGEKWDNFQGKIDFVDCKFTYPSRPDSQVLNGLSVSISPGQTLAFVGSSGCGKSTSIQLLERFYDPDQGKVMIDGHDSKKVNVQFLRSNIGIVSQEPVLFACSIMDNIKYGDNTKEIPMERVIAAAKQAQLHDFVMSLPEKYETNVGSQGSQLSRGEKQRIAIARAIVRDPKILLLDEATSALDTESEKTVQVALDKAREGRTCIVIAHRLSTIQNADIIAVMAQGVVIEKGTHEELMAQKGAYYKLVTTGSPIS

As for `COc1ccccc1-c1nc(-c2nc(C)n[nH]2)c(O)c2ncccc12` [Compound 16, 5-(2-Methoxyphenyl)-7-(3-methyl-1H-1,2,4-triazol-5-yl)-1,6-naphthyridin-8-ol], in the data set “Chrom Log D pH7.4” (pH 7.4), the ChromLogDpH7.4 is 3.2. For the same compound, the ChromLogD in “Chrom Log D pH7.4” (supplement sheet) was 3.2. The “Ld InMac (pEC50)” value with L. donovani amastigotes (L. donovani amastigotes in THP-1 cells, 96 h compound exposure) came out at 6.2. In addition, the “LdInMac pIC50” value in the data set on L. donovani amastigotes (supplement sheet) is on record as 6.2. Further, the “reduction of parasite burden in mouse liver” value in the data set with Leishmania donovani (50 mg/kg ip twice daily, 5 days) is on record as 46%. Moreover, the “VL mouse efficacy model Reduction in parasite levels %” value in the data set with Leishmania donovani (supplement sheet) was 46%. For the same compound, in data set [1], the Tmax (as a rule, the time at which the peak concentration occurs) was 30 min. Also, in [1] (ip, 50 mg/kg), the time to peak (Tmax) was 30 min, the “glucuronidated adducts in blood samples” value is on record as “presence of glucuronidated adducts” and the “time unbound blood concentration exceeds EC99” value was “only during the first hour post-dose”. Besides, the kinetic solubility (as a rule, solubility judged after dilution from a stock solution rather than from solid) in [2] is given as greater than 250 µM. In addition, the “glucuronide adduct observed in hepatocytes” value in data set [3] is listed as “negligible amounts of the glucuronide adduct”. For the same compound, in data set [3] (mouse, hepatocytes), the “clearance in mouse hepatocytes” value turned out to be 1.4 mL/min/g. For the same compound, in data set [4], the “Cli (mouse liver microsomal intrinsic clearance)” value worked out at 0.8 mL/min/g and the “Cli (mouse, ml/min/g)” value stood at 0.8 mL/min/g. For the same compound, in the data set on THP-1 cells (human THP-1 host cells), the “THP-1 (pEC50)” value was less than 4.3. Besides, the “THP1 pIC50” value in the data set on THP-1 cells (supplement sheet) is given as less than 4.3.

On to `CC(NC(=O)c1ncc2cccnc2c1O)c1ccc(F)cc1` (stereo not shown) [Compound 28, N-(1-(4-Fluorophenyl)ethyl)-8-hydroxy-1,6-naphthyridine-7-carboxamide], for which the chromatographic logD in “Chrom Log D pH7.4” (setting [8]) and in “Chrom Log D pH7.4” (setting [9]) was 5.1 each time. For the same compound, the IC50 in the data set with L. donovani amastigotes (setting [10]) is 0.158 µM; at monoamine oxidase A, 3.98 µM; in [5] (read-out: pIC50 in phenotypic cell health assay (converted)) it was 12.6 µM; with THP-1 cells (supplement sheet), 5.01 µM. Moreover, in [2], the solubility (commonly how much of the substance goes into solution per volume) was greater than 250 µg/mL. For the same compound, in data set [2], the kinetic solubility is greater than 250 µM. The “time to symptoms requiring termination” value in data set [6] (mouse) is listed as no more than 3.5 h. For the same compound, the “tolerability in mouse PK study” value in data set [6] (mouse) is reported as “proved to be toxic”. For the same compound, in data set [4], the “Cli (mouse liver microsomal intrinsic clearance)” value was found to be 3.7 mL/min/g. For the same compound, the “Cli (mouse, ml/min/g)” value in data set [4] stood at 3.7 mL/min/g. Further, the EC50 in the data set with THP-1 cells (human THP-1 host cells) is 5.01 µM.

On to `CNC(=O)c1nc(-c2ccccc2OC)c2cccnc2c1O` [Compound 26, 8-Hydroxy-5-(2-methoxyphenyl)-N-methyl-1,6-naphthyridine-7-carboxamide], for which the figures for the IC50 in the data set with L. donovani amastigotes (setting [10]) and in the data set with THP-1 cells (supplement sheet) were 10 µM and 39.8 µM, respectively. The “parent remaining in blood” value in data set [6] (Balb C mice, 8 h post-dose) was “significant quantities of parent were still present 8 h post-dose”. Further, the “in vivo glucuronidation / metabolites” value in data set [6] (Balb C mice, blood) is given as “little evidence of glucuronidation”.

Consider `COc1ccccc1-c1nc(C(=O)N[C@H]2CC[C@H](OC)CC2)c(O)c2ncccc12` [Compound 34, 8-Hydroxy-N-(trans-4-methoxycyclohexyl)-5-(2-methoxyphenyl)-1,6-naphthyridine-7-carboxamide], for which the IC50 in data set [7] is 15.8 µM; in the data set with L. donovani amastigotes (setting [10]) it was 1 µM; in the data set on THP-1 cells (supplement sheet), 39.8 µM. In addition, the “activity in phospholipidosis assay” value in the data set with phospholipidosis is recorded as “activity”. Further, the chromatographic logD in the data set “Chrom Log D pH7.4” (setting [8]) and in the data set “Chrom Log D pH7.4” (setting [9]) was 5.7 throughout. For the same compound, the EC50 was 1 µM with L. donovani amastigotes (Leishmania donovani, THP-1, 96 h, L. donovani amastigotes in THP-1 cells, 96 h compound exposure, read-out: Ld InMac (pEC50) (converted)) and 39.8 µM in the data set with THP-1 cells (human THP-1 host cells). The “pIC50 in phenotypic cell health assay” value in [5] was “showed potency in the cell health assay”. Further, in [2], the solubility is greater than 250 µg/mL. In data set [2], the kinetic solubility was greater than 250 µM. For the same compound, in data set [6] (mouse), the “time after which study was terminated” value was found to be 60 min. Besides, the “tolerability in mouse PK study” value in [6] (mouse) is recorded as “displayed the similar symptoms as with compound 28”. In [4], the “Cli (mouse liver microsomal intrinsic clearance)” value was 1.4 mL/min/g. Besides, the “Cli (mouse, ml/min/g)” value in [4] is 1.4 mL/min/g.

The values are drawn from paper PMC7748245, “Identification and Optimization of a Series of 8-Hydroxy Naphthyridines with Potent In Vitro Antileishmanial Activity: Initial SAR and Assessment of In Vivo Activity” (Journal of Medicinal Chemistry, 2020).
